Test results: patent US12569508B2, “Antimicrobial compositions and methods of use” (priority 2020, dated 2026)

What was measured:
[1] = in vitro; format: in vitro ADME; conditions: human
Experimental: The barrier integrity of the CFBE41o− cell line cultured on the Transwell® supports was determined by both TEER (Srinivasan B et aL, 2015, Journal of Laboratory Automation, 20(2): 107-126) and sodium fluorescein transport (Molenda N et al., 2014, PLOS ONE, 9(6): p. e100621). Due to the variation in TEER measurements, sodium fluorescein transport provided a direct measurement of the tight junctions. On day 7 (4 days after cells are transferred to ALI), cells were incubated basolaterally with 1.7 mL KRB buffer and apically with 520 μL of 10 μg/mL sodium fluorescein (in KRB) with or without 16 mM ethylenediaminetetraacetic acid (EDTA). EDTA disrupts the tight junctions of a cell barrier. At 30-minute intervals, 20 μL samples were taken from the basolateral compartment and replaced with fresh KRB. […] The samples were then measured and compared to a standard curve via fluorescent spectroscopy (Tecan® plate reader, Tecan Deutschland GmbH, Germany) at excitation and emission wavelengths of […], respectively. […]
(§1) After TOB treatments were nebulised, at 5, 15, 30, 60, 120, 240 and 1440 minutes, 100 μL sample was taken from the basolateral compartment and replaced with fresh MEM media. The sample was then filtered through 4 mm Millex® syringe filters before LC-MS/MS analysis, as described above, to quantify the transport of TOB.

[2] = system: 6 mm full-thickness wound infected with P. aeruginosa; test: Chronic full-thickness wound infection model: macroscopic and microscopic wound healing; format: in vivo, Balb/c mice
Experimental: Following the same procedure as above, male and female mice were wounded with a 6 mm circular full-thickness wound under anaesthesia and pain relief. […] Treatments were repeated every 24 h for three days and monitored for the bacterial burden and digital photographs. On day six, mice were sacrificed as described above. Digital photographs of the wounds that were taken daily (day zero to six) were used for the macroscopic assessment of healing using ImageJ software. The images were calibrated to a ruler to measure the wounds length, gape and surface area, as previously described (Abbott C A et al., 2013, supra). The microscopic analysis was completed with histology assessments. Following overnight fixation in 4% (v/v) formaldehyde, collected wound halves were routinely processed into paraffin, and 4 μm thick sections were cut using a semi-automated rotary microtome (HistoCore MultiCut, Leica Biosystems, Melbourne, Australia). The sections were stained for haematoxylin and eosin using established protocols (Kopecki, Z., et al., 2009, supra). Following, all sections were imaged via […] slide scanner, Hamamatsu Photonics, Japan) and analysed using NDP.view2 Viewing software (Hamamatsu Photonics, Japan) to microscopically assess the healing via measurement of wound length, gape and percentage of wound re-epithelisation following previously used protocols ([…]., et al., 2021, supra).

[3] = Tobramycin transport across CFBE41o− infected with PAO1 biofilm; format: in vitro ADME, human; conditions: human; nebulised; biofilm and epithelium monolayer; read-out: Papp of TOB
Experimental: (§2) To assess the activity and toxicity or formulations, the CFBE41o− cell line was seeded on Transwell® inserts (0.05×10^6) at the liquid-liquid interface (500 μL apical and 1500 μL basolateral) on day 0. On day 3, the apical side media was removed, and the basolateral side was replaced with 500 μL of media. On day 7, the transepithelial electrical resistance (TEER) was measured through adding 500 μL to the apical chamber of one well and replacing the basolateral side with 1500 μL. The transferred biofilm model, described above, was employed to transfer the PAO1 biofilm on top of the CFBE41o− cell line in the apical compartment of the Transwells® on day 7. After 1 h incubation, the supernatant was removed as the biofilm has settled onto the cells.
(§3) Using the Aerogen® Pro (vibrating mesh nebuliser) and nebulisation chamber, the treatments were then nebulised on top of the biofilm and CFBE41o− cell layer. […]
as §1

[4] = system: CFBE41o− infected with PAO1 biofilm; test: as above; format: in vitro ADME, human; conditions: peak at 2.5 h after nebulisation
Experimental: as §2, §3, §1

[5] = system: CFBE41o−; format: cell-based, human
Experimental: Cell viability was assessed through taking the contents of the basolateral compartment media and reacting it with a Cytotoxicity Detection Kit (LDH) (Roche) to determine the amount of LDH released. 200 μL of the basolateral media was taken and centrifuged at 300×g for 10 mins. 100 μL of the supernatant was mixed with 100 μL of the reaction solution, as per manufacturer's instructions. LDH release was measured after 5-minute incubation at room temperature using a plate reader at an absorbance of 492 nm.

Structure (SMILES): NC[C@H]1O[C@H](O[C@H]2[C@H](O)[C@@H](O[C@H]3O[C@H](CO)[C@@H](O)[C@H](N)[C@H]3O)[C@H](N)C[C@@H]2N)[C@H](N)C[C@@H]1O [unformulated TOB, tobramycin]
- Papp at 1440 min [1]: 0.81 ×10⁻⁶ cm/s
- macroscopic dermal gape ([2]; day five): 88±11%
- macroscopic wound area (of the original wound) ([2]; day five, after two doses): 66±13%
- dermal gape (histology) ([2]; day six): 5.2±0.8 mm
- macroscopic dermal gape ([2]; day six): 77±10%
- macroscopic wound area (of the original wound) ([2]; day six, after three doses): 75±18%
- wound length (histology) ([2]; day six, after three doses): 7.6±0.9 mm
- wound reepithelization ([2]; day six, histology): 41±8%
- Papp at 1440 min, 3.32 mg/mL [3]: 1.91 ×10⁻⁶ cm/s
- TOB reaching the basolateral compartment [4]: 15.8%
- epithelium cell monolayer viability [5]: maintained the epithelium cell monolayer viability
- cell viability of the epithelium monolayer ([5]; human, 24 h): above 80%
